Data reported in patent US11746100B2 (GLOBAL BLOOD THERAPEUTICS, INC., priority 2020, dated 2023).

What follows are compounds tested against T1, human ferroportin (Homo sapiens, UniProt Q9NP59) (assay: Biological in-vitro ferroportin internalization assay (luciferase reporter)). Conditions: average pEC50; stably-transfected CHO cell line expressing human ferroportin tagged to a luciferase reporter; 6 h incubation with test compound.
T1 construct: luciferase reporter (read with the Nano-Glo Luciferase Assay System); expressed in transfected cells; host or cells: CHO cells, stably transfected, expression induced with doxycycline
T1 sequence (Q9NP59 1-571): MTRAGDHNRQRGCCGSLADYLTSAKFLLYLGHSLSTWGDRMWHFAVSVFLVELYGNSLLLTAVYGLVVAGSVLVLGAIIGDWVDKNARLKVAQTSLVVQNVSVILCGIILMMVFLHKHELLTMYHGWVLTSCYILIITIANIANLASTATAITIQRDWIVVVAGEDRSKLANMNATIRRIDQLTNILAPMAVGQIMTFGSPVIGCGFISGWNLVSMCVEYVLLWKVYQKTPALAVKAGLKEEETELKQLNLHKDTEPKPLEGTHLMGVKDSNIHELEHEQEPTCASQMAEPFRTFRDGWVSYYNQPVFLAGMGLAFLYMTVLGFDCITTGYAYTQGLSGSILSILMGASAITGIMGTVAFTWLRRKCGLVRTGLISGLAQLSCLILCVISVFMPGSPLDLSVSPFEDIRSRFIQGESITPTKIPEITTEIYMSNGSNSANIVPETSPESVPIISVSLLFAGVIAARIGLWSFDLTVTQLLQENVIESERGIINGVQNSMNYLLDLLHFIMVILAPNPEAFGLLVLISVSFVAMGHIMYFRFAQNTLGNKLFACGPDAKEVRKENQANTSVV
Assay type: cell-based
How it was run: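 Read-out is Nano-Glo luciferase signal after 6 h compound exposure, with average pEC50 derived. Cells are a stable CHO line carrying luciferase-tagged human ferroportin, pre-loaded 24 h with ferric ammonium citrate and doxycycline-induced for 24 h.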

Row | Compound | pEC50
1 | CN(CC(=O)NC(C)(C)C)c1nc(-c2cc(OC3COC3)ccn2)nc2c1CCC2 [Compound 245, N-tert-butyl-2-[methyl({2-[4-(oxetan-3-yloxy)pyridin-2-yl]-5H,6H,7H-cyclopenta[d]pyrimidin-4-yl})amino]acetamide] | 7.7
2 | CCN(CC(=O)NC(C)(C)C)c1nc(-c2cc(OCCO)ccn2)nc2c1CCC2 [Compound 360, N-tert-butyl-2-[ethyl({2-[4-(2-hydroxyethoxy)pyridin-2-yl]-5H,6H,7H-cyclopenta[d]pyrimidin-4-yl})amino]acetamide] | 7.8
3 | CN(CC(=O)NC(C)(C)C)c1nc(-c2cc(OCCN3CC[C@H](F)C3)ccn2)nc2c1CCC2 [Compound 474, N-tert-butyl-2-{[2-(4-{2-[(3S)-3-fluoropyrrolidin-1-yl]ethoxy}pyridin-2-yl)-5H,6H,7H-cyclopenta[d]pyrimidin-4-yl](methyl)amino}acetamide] | 8.3
4 | CCNC(=O)CN(C)c1nc(-c2cc(OCC(O)(CC)CC)ccn2)nc2c1CCC2 [Compound 442, N-ethyl-2-({2-[4-(2-ethyl-2-hydroxybutoxy)pyridin-2-yl]-5H,6H,7H-cyclopenta[d]pyrimidin-4-yl}(methyl)amino)acetamide] | 8
5 | C[C@H](C(=O)NC1CCCCC1)N(C)c1nc(-c2cn(C)cn2)nc2c1CCC2 [Compound 118, (2R)—N-cyclohexyl-2-{methyl[2-(1-methyl-1H-imidazol-4-yl)-5H,6H,7H-cyclopenta[d]pyrimidin-4-yl]amino}propanamide] | 7.8
6 | COc1ccc(NC(=O)CN(C)c2nc(-c3cc(OCCF)ccn3)nc3c2CCC3)cn1 [Compound 242, 2-({2-[4-(2-fluoroethoxy)pyridin-2-yl]-5H,6H,7H-cyclopenta[d]pyrimidin-4-yl}(methyl)amino)-N-(6-methoxypyridin-3-yl)acetamide] | 7.7
7 | CO[C@@H]1CCN(CCOc2ccnc(-c3nc4c(c(N(C)CC(=O)NC(C)(C)C)n3)CCC4)c2)C1 [Compound 463, N-tert-butyl-2-{[2-(4-{2-[(3R)-3-methoxypyrrolidin-1-yl]ethoxy}pyridin-2-yl)-5H,6H,7H-cyclopenta[d]pyrimidin-4-yl](methyl)amino}acetamide] | 8.1
8 | CN(CC(=O)Nc1cnn(C)c1)c1nc(-c2cc(OC(F)(F)F)ccn2)nc2c1CCC2 [Compound 231, 2-[methyl({2-[4-(trifluoromethoxy)pyridin-2-yl]-5H,6H,7H-cyclopenta[d]pyrimidin-4-yl})amino]-N-(1-methyl-1H-pyrazol-4-yl)acetamide] | 6.2
9 | COc1ccnc(-c2nc3c(c(N(C)CC(=O)Nc4ccc(=O)n(C)c4)n2)CCC3)c1 [Compound 281, 2-{[2-(4-methoxypyridin-2-yl)-5H,6H,7H-cyclopenta[d]pyrimidin-4-yl](methyl)amino}-N-(1-methyl-6-oxo-1,6-dihydropyridin-3-yl)acetamide] | 7.3
10 | CN(CC(=O)Nc1ccc2cccnc2c1)c1nc(-c2ccccn2)nc2c1CCC2 [Compound 21, 2-{methyl[2-(pyridin-2-yl)-5H,6H,7H-cyclopenta[d]pyrimidin-4-yl]amino}-N-(quinolin-7-yl)acetamide] | 6.9
11 | CN(C)CCOc1ccnc(-c2nc3c(c(N(C)CC(=O)NC(C)(C)C)n2)CCC3)c1 [Compound 348, N-tert-butyl-2-[(2-{4-[2-(dimethylamino)ethoxy]pyridin-2-yl}-5H,6H,7H-cyclopenta[d]pyrimidin-4-yl)(methyl)amino]acetamide] | 8.0
12 | COc1ccnc(-c2nc3c(c(N(C)CC(=O)NC4(C)CCOC4)n2)CCC3)c1 (centres unmarked) [Compound 146, 2-{[2-(4-methoxypyridin-2-yl)-5H,6H,7H-cyclopenta[d]pyrimidin-4-yl](methyl)amino}-N-(3-methyloxolan-3-yl)acetamide] | 6.8
13 | CN(CC(=O)NC(C)(C)C)c1nc(-c2cc3ccoc3cn2)nc2c1CCC2 [Compound 365, N-tert-butyl-2-[(2-{furo[2,3-c]pyridin-5-yl}-5H,6H,7H-cyclopenta[d]pyrimidin-4-yl)(methyl)amino]acetamide] | 7.4
14 | COC[C@@H](O)COc1ccnc(-c2nc3c(c(N(C)CC(=O)NC(C)C)n2)CCC3)c1 [Compound 448, 2-[(2-{4-[(2R)-2-hydroxy-3-methoxypropoxy]pyridin-2-yl}-5H,6H,7H-cyclopenta[d]pyrimidin-4-yl)(methyl)amino]-N-(propan-2-yl)acetamide] | 7.4
15 | COc1ccc(NC(=O)CN(C)c2nc(-c3ccccn3)nc3c2CCC3)cc1 [Compound 75, N-(4-methoxyphenyl)-2-{methyl[2-(pyridin-2-yl)-5H,6H,7H-cyclopenta[d]pyrimidin-4-yl]amino}acetamide] | 7.5
16 | CN(c1nc(-c2ccccn2)nc2c1CCC2)C(C)(C)C(=O)NC(C)(C)C [Compound 19, N-tert-butyl-2-methyl-2-{methyl[2-(pyridin-2-yl)-5H,6H,7H-cyclopenta[d]pyrimidin-4-yl]amino}propanamide] | 5.4
17 | CNCCCc1ccnc(-c2nc3c(c(N(C)CC(=O)NC(C)(C)C)n2)CCC3)c1 [Compound 480, N-tert-butyl-2-[methyl(2-{4-[3-(methylamino)propyl]pyridin-2-yl}-5H,6H,7H-cyclopenta[d]pyrimidin-4-yl)amino]acetamide] | 7.3
18 | O=C1CCCCCN1c1nc(-c2ccccn2)nc2c1CCC2 [Compound 46, 1-[2-(pyridin-2-yl)-5H,6H,7H-cyclopenta[d]pyrimidin-4-yl]azepan-2-one] | 5.1
19 | Cc1ccnc(-c2cc(N(C)CC(=O)NC(C)(C)C)c3c(n2)CCC3)c1 [Compound 68, N-tert-butyl-2-{methyl[2-(4-methylpyridin-2-yl)-5H,6H,7H-cyclopenta[b]pyridin-4-yl]amino}acetamide] | 7.2
20 | Cc1ccc(NC(=O)CN(C)c2nc(-c3cc(OCCO)ccn3)nc3c2CCC3)cn1 [Compound 199, 2-({2-[4-(2-hydroxyethoxy)pyridin-2-yl]-5H,6H,7H-cyclopenta[d]pyrimidin-4-yl}(methyl)amino)-N-(6-methylpyridin-3-yl)acetamide] | 7.9
21 | Cc1ccc(NC(=O)CN(C)c2nc(-c3cc4c(CO)cccc4cn3)nc3c2CCC3)cn1 [Compound 270, 2-({2-[5-(hydroxymethyl)isoquinolin-3-yl]-5H,6H,7H-cyclopenta[d]pyrimidin-4-yl}(methyl)amino)-N-(6-methylpyridin-3-yl)acetamide] | 7.5
22 | CN(CC(=O)Nc1ccc(C(F)(F)F)nc1)c1nc(-c2cc3cn[nH]c3cn2)nc2c1CCC2 [Compound 288, 2-[methyl(2-{1H-pyrazolo[3,4-c]pyridin-5-yl}-5H,6H,7H-cyclopenta[d]pyrimidin-4-yl)amino]-N-[6-(trifluoromethyl)pyridin-3-yl]acetamide] | 7.1
23 | COc1ccnc(-c2nc3c(c(N(C)CC(=O)NC(C)(C)CO)n2)CCC3)c1 [Compound 136, N-(1-hydroxy-2-methylpropan-2-yl)-2-{[2-(4-methoxypyridin-2-yl)-5H,6H,7H-cyclopenta[d]pyrimidin-4-yl](methyl)amino}acetamide] | 7.7
24 | COc1ccc(NC(=O)CN(C)c2nc(-c3cc4scnc4cn3)nc3c2CCC3)cn1 [Compound 304, N-(6-methoxypyridin-3-yl)-2-[methyl(2-{[1,3]thiazolo[4,5-c]pyridin-6-yl}-5H,6H,7H-cyclopenta[d]pyrimidin-4-yl)amino]acetamide] | 6.8
25 | CN(CC(=O)NC(C)(C)C)c1nc(-c2ccc(OCCO)cn2)nc2c1CCC2 [Compound 40, N-tert-butyl-2-({2-[5-(2-hydroxyethoxy)pyridin-2-yl]-5H,6H,7H-cyclopenta[d]pyrimidin-4-yl}(methyl)amino)acetamide] | 7.1
26 | CN(CC(=O)N1CCCCC1)c1nc(-c2cc(OC3COC3)ccn2)nc2c1CCC2 [Compound 323, 2-[methyl({2-[4-(oxetan-3-yloxy)pyridin-2-yl]-5H,6H,7H-cyclopenta[d]pyrimidin-4-yl})amino]-1-(piperidin-1-yl)ethan-1-one] | 7.5
27 | COc1ccnc(-c2nc3c(c(N(C)CC(=O)N[C@@H]4CCCC[C@@H]4O)n2)CCC3)c1 (stereo in doubt) [Compound 168, N-[(1R,2S)-2-hydroxycyclohexyl]-2-{[2-(4-methoxypyridin-2-yl)-5H,6H,7H-cyclopenta[d]pyrimidin-4-yl](methyl)amino}acetamide] | 7.3
28 | CN(CC(=O)NC(C)(C)C)c1nc(-c2cc(OCCn3cnnn3)ccn2)nc2c1CCC2 [Compound 466, N-tert-butyl-2-[methyl(2-{4-[2-(1H-1,2,3,4-tetrazol-1-yl)ethoxy]pyridin-2-yl}-5H,6H,7H-cyclopenta[d]pyrimidin-4-yl)amino]acetamide] | 7.9
29 | Cc1cccc(NC(=O)CN(C)c2nc(-c3cc(OCCO)ccn3)nc3c2CCC3)c1 [Compound 292, 2-({2-[4-(2-hydroxyethoxy)pyridin-2-yl]-5H,6H,7H-cyclopenta[d]pyrimidin-4-yl}(methyl)amino)-N-(3-methylphenyl)acetamide] | 8.1
